Key:
[1] = system: acetate-caused colitis; test: Acetate-caused colitis model; type: in vivo, Syrian strain male hamster; conditions: for area of ulcer: three times (18 h and 1 h before, 6 h after cause of colitis), anatomized 24 hours later, FIG. 1; for amount of the haemoglobin (index of the enteric hemorrhage): three times, washing supernatant of large intestine, 24 hours later, FIG. 2
Description: (1) Acetate-Caused Colitis Model.
(§1) After 1% aqueous acetic acid (10 ml/kg) is injected from anus of Syrian strain male hamster (7 weeks of ages) into large intestine with a flexible, oral sonde for rat, colitis was caused by clipping anus for 30 minutes. Distilled water was similarly injected into a normal group.
0.5% CMC (10 ml/kg) was orally administered to the normal group and the control group, and 10, 30 and 100 mg/10 ml/kg of a test drug suspended into 0.5% CMC were orally administered to the group administrated test drug three times in total, 18 hours and 1 hour before cause of colitis and 6 hours after cause, respectively.
They were anatomized 24 hours later, and large intestines of 7 cm length were sampled from anus. Then, these intestinals were incised, and these enterics were washed by physiological salt solution (5 ml). they were taken a picture of incised large intestines, and ulcer area (cm^2) was calculated by the image analysis. Moreover, the washing supernatant of large intestine was supplied for the measurement of the amount of the haemoglobin (index of the amount of the enteric hemorrhage).
As a test drug, 2-[5-amino-6-oxo-2-phenyl-1,6-dihydro-1-pyrimidinyl]-N-[1-[[5-(t-butyl)-1,3,4-oxadiazole-2-yl]carbonyl]-2-methylpropyl]acetamide (Compound 34) was used. FIG. 1 and FIG. 2 show the results.

[2] = system: picrylsulfonic acid (TNBS)-caused colitis; test: Picrylsulfonic acid (TNBS)-caused colitis model; type: in vivo, Syrian strain male hamster; conditions: for area of the ulcer: once a day before cause, then twice a day, anatomized 5 days later, FIG. 3; for amount of the haemoglobin (index of the enteric hemorrhage): supernatant of washing of large intestine, 5 days later, FIG. 4
Description: (2) Picrylsulfonic Acid (TNBS)-Caused Colitis Model.
as §1, with “90 mg/ml of TNBS/isotonic solution (with 15 vol % ethanol) liquor (0.1 ml/body)” for “1% aqueous acetic acid (10 ml/kg)”
0.5% CMC (10 ml/kg) was orally administered to the normal group and the control group, and 25, 50 and 100 mg/10 ml/kg doses of a test drug suspended into 0.5% CMC were orally administered to the group administrated test drug once a day before cause of colitis and twice a day until the day of cause before anatomy, respectively.
They were anatomized 5 days later, and large intestines of 3 cm length were sampled from anus. Then, these intestinals were incised, and these enterics were washed by physiological salt solution (2 ml). they were taken a picture of incised large intestines, and ulcer area (cm^2) was calculated by the image analysis. Moreover, the supernatant of washing of large intestine was supplied to the measurement of the amount of the haemoglobin (index of the amount of the enteric hemorrhage).
As a test drug, compound 34 was used as well as example (1). FIG. 3 and FIG. 4 show the results.

CC(C)C(NC(=O)Cn1c(-c2ccccc2)ncc(N)c1=O)C(=O)c1nnc(C(C)(C)C)o1 (centres unmarked) [compound 34, 2-[5-amino-6-oxo-2-phenyl-1,6-dihydro-1-pyrimidinyl]-N-[1-[[5-(t-butyl)-1,3,4-oxadiazole-2-yl]carbonyl]-2-methylpropyl]acetamide]
intentionally suppressed: area of ulcer ([1]; 30 mg/kg orally) | amount of the haemoglobin (index of the enteric hemorrhage) ([1]; 30 mg/kg orally) | area of ulcer ([1]; 100 mg/kg orally) | amount of the haemoglobin (index of the enteric hemorrhage) ([1]; 100 mg/kg orally) | area of the ulcer ([2]; 50 mg/kg orally) | amount of the haemoglobin (index of the enteric hemorrhage) ([2]; 50 mg/kg orally) | area of the ulcer ([2]; 100 mg/kg orally) | amount of the haemoglobin (index of the enteric hemorrhage) ([2]; 100 mg/kg orally)

From patent US20030212115A1, “Remedies for inflammatory bowel diseases” (priority 2000, published 2003)
